Our source for the DC50 and Y values is patent publication US11306101B2 (Celgene Corporation, priority 2019, dated 2022).

Molecules are shown by their SMILES.

This assay concerns the target T1, CK1α (Homo sapiens, UniProt P48729+Q96SW2).
T1 construct: expressed in transfected cells
The assay can be described thus: CK1α ePL degradation assay in MDS-L cells. To be noted: MDS-L cells expressing ePL-tagged CK1α. The format is cell-based. The essentials:
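MDS-L cells treated with compound in a 10-point, 3-fold series from 10 μM to 0.0005 μM at 37° C, 5% CO2 for the indicated times; CK1α measured by InCELL Hunter enzyme-fragment luminescence. Levels normalized to DMSO as percent of control; lowest level reached taken as Y value.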

T1 sequence (P48729 whole entry): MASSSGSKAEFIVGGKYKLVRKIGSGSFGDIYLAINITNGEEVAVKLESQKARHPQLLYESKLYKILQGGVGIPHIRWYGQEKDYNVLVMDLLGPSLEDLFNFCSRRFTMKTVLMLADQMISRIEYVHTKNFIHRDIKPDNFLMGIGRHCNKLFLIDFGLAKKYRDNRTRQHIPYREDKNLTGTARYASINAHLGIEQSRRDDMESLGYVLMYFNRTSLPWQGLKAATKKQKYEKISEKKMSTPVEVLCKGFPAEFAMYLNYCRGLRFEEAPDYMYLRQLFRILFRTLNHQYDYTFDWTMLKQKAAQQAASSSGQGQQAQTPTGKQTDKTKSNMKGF
T1 sequence (Q96SW2 whole entry): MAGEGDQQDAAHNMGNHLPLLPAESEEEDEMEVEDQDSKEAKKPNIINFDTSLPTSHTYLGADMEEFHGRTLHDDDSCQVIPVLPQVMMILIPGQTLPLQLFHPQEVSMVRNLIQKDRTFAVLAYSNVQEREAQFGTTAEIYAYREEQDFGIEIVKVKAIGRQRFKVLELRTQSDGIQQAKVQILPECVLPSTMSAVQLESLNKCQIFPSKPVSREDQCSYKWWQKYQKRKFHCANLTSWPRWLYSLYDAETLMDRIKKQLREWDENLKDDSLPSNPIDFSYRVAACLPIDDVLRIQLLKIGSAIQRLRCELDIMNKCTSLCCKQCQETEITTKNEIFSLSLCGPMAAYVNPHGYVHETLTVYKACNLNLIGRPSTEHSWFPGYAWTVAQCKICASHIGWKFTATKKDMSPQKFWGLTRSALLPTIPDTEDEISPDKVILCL
T1 sequence (Q16531 whole entry partner): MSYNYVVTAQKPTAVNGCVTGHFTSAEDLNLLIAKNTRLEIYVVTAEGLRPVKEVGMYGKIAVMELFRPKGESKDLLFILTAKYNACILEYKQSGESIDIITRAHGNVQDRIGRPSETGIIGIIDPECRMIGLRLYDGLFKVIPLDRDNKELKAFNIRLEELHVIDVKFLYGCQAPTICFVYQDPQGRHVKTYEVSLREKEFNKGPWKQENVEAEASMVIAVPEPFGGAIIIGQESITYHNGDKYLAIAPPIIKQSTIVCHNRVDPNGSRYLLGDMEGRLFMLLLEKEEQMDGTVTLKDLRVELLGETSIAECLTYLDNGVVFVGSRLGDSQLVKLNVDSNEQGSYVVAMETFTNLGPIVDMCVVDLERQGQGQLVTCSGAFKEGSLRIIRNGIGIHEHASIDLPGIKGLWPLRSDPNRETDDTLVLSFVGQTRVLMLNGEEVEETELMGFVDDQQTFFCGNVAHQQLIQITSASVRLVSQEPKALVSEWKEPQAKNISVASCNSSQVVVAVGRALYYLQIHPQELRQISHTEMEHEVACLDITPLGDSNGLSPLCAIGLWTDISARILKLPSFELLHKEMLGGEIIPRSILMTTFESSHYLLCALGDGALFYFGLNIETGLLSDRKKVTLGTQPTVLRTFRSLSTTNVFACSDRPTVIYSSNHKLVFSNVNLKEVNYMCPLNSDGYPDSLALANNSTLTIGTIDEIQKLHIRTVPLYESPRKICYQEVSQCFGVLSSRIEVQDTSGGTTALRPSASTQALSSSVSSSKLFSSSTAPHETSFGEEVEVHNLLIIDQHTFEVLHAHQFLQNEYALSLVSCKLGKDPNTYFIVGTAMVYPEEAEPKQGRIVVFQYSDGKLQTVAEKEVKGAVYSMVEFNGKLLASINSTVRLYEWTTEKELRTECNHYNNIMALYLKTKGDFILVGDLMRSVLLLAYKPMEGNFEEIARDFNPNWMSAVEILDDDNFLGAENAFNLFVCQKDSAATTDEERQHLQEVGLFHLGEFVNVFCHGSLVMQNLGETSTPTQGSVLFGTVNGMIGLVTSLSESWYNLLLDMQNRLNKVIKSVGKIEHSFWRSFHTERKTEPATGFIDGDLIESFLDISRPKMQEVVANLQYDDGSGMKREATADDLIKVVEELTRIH

As to `CN1CCN(c2cccc([C@@H](NC(=O)c3ccc4c(c3)CN(C3CCC(=O)NC3=O)C4=O)C(F)(F)F)c2)CC1` (stereo partly drawn) [Example 209, 2-(2,6-dioxopiperidin-3-yl)-1-oxo-N-((R)-2,2,2-trifluoro-1-(3-(4-methylpiperazin-1-yl)phenyl)ethyl)isoindoline-5-carboxamide], the DC50 (concentration giving 50% CK1α degradation vs DMSO control) is 100 to 500 nM. Moreover, for the setting “lowest measured CK1α level normalized to DMSO control”, the Y result is “** (a Y value (shown as**) of 20%<Y≤35%)”.

By DC50 is commonly meant the midpoint of the concentration-degradation curve. A low value points to degradation at low concentration.
